Test results published in patent publication US20140274782A1, “AFFINITY REAGENTS AND METHODS FOR DETECTION, PURIFICATION, AND PROTEOMIC ANALYSIS OF METHYLATED PROTEINS” (The Board of Trustees of the Leland Stanford Junior …, priority 2013, published 2014).

Key:
3×MBT domain of L3MBTL1 [1] = experiment: SILAC proteomic pull-down 3×MBT vs 3×MBTD355N from 293T nuclear extract, LC-MS/MS; type: binding, human; settings: SILAC ratio, 293T nuclear extract pull-down; * = protein identified in only one labeling experiment
Experimental: Protein pull-downs were performed as described above using 600 μg of nuclear extract prepared with isotopic labels as indicated. After eluting with glutathione, 3×MBT domain was removed by dialysis into high salt and rebinding to GSH-sepharose. Bound proteins were separated by SDS-PAGE and analyzed by in-gel tryptic digest followed by LC-MS/MS. Peptides were identified using MaxQuant version 1.2.2.5 (Cox and Mann (2008) Nat. Biotechnol. 26, 1367-1372) and candidate methylated peptides were verified by manual inspection.
For stable isotope labeling by amino acids in cell culture (SILAC) experiments HEK 293T cells were grown for at least six doublings in DMEM for SILAC supplemented with 10% dialyzed fetal bovine serum (FBS), 230 mg/L L-proline and either 100 mg/L each of L-lysine and L-arginine (“light” medium), D4-L-lysine and ^13C6-L-arginine (“medium” media), or ^13C6^15N2-L-lysine and ^13C6^15N4-L-arginine (Thermo Scientific). Heavy methyl labeling used DMEM without L-Methionine or L-Cysteine supplemented with D3^13C-L-Methionine (Sigma), L-Cysteine (Sigma) and 10% dialyzed FBS.
600 μg of nuclear extract was incubated overnight rotating at 4° C. with 20 μl packed 3×MBT or 3×MBTD355N beads in a total volume of 250 μL with binding buffer. Supernatant was removed and saved for use as a loading control. Beads were washed 4×5 minutes with 0.5 mL binding buffer. Protein was eluted by incubating in 20 μL elution buffer (10 mg/mL glutathione in 50 mM Tris pH 8.0) rotating at 4° C. for four hours. Elutions from 3×MBT and 3×MBTD355N were combined and dialyzed overnight at 4° C. against 10,000× volume of dissociation buffer (50 mM Tris pH 7.5, 750 mM NaCl) in a 0.1 mL Slide-A-Lyzer MINI Dialysis Device with 3.5K molecular weight cutoff (Thermo Scientific). 80 μL of GSH-Sepharose was prepared by washing briefly three times with 0.5 mL binding buffer. Dialyzed proteins were added to the GSH-Sepharose and incubated 4 hours rotating at 4° C. to deplete the GST-fusion domains. Supernatant was transferred to a fresh 1.5 mL tube. Proteins were separated by SDS-PAGE on a 10% polyacrylamide gel and stained using SilverQuest Silver Staining Kit (Life Technologies). Lanes were excised, residual 3×MBT band was removed, and gel was diced into 0.5 mm cubes. Gel pieces were destained and processed by in-gel digestion (Carlson et al. (2011) Science Signaling 4) with sequencing grade trypsin (Promega) and the peptide sample was dried completely in a vacuum centrifuge. To prepare a loading control, 2 μL each of light and heavy nuclear extract were combined, 6 μL of 8M urea was added, proteins were denatured by adding 2 μL of 100 mM dithiothreitol in digest buffer (50 mM ammonium bicarbonate) and heating to 60° C. for 1 hour, cysteine was alkylated by adding 2.2 μL 100 mg/mL iodoacetamide in digest buffer and incubating 1 hour at room temperature in darkness, and proteins were digested by adding 80 μL trypsin (Promega) at 12.5 ng/μL in digest buffer and incubating overnight at room temperature in darkness. Digestion was stopped by adding 10 μL of 10% formic acid.
Each experiment consisted of two sets of pull-downs: “forward” labeling with 3×MBT incubated with light nuclear extract and 3×MBTD355N with medium extract, and a second “reverse” labeling experiment with the label conditions swapped. Proteins were included in the results if they were quantified in both labeling directions. To determine reproducibility the entire experiment including the label swap was duplicated using independent protein preparations and a mass spectrometer at another institution.
For 3×MBT pull-down experiment #1 the gel lane was processed and peptides were loaded off-line onto a first dimension trap column (Waters Xbridge, C18, 10 μm particle size, 100 Å pore size, 5 cm packing length, 150 μm column i.d.). […]

3×MBT domain of L3MBTL1 [2] = experiment: Triple SILAC pull-down, 3xMBT/3xMBTD355N ratio (cytoplasmic, nuclear and chromatin fractions of 293T cells); type: binding, human; settings: SILAC ratio; for 3xMBT/D355N UNC Heavy / 3xMBT/D355N UNC Light: pull-down 3xMBT vs 3xMBTD355N; for 3xMBT/D355N UNC Heavy: experiment with UNC0638 in heavy SILAC media; for 3xMBT/D355N UNC Light: experiment with UNC0638 in light SILAC media; for Protein Ratios 3xMBT/D355N: pull-down by 3xMBT vs 3xMBTD355N, 293T cells;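 on all read-outs here: proteins quantified with MaxQuant, requiring at least two unique peptides and quantification in both label directions, normalized to the mean of proteins from a digested loading control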
Experimental: For UNC0638 treatments cells were treated for 24 hours with UNC0638 at 2.5 μM or DMSO vehicle control. One experiment treated cells in light media with UNC0638, the other treated cells in heavy media. Both experiments included cells in medium media treated with DMSO for negative control pull-down with 3×MBTD355N.
UNC0638 treatment experiments used a Q-Exactive mass spectrometer (ThermoFisher Scientific). A 25 cm HPLC column with 3 μm Reliasil (Orochem) was used to separate peptides over a 4 hour gradient from 0 to 75% acetonitrile. Ions were generated using a custom nanospray source flowing at 250 nL/minute. Mass spectrometry settings were 70,000 MS1 resolution, data dependent selection of up to 20 precursor ions per cycle, dynamic exclusion of 30 seconds and isolation window of 2 m/z. The nuclear fraction from the experiment using UNC0638 on cells in heavy media was additionally analyzed by 2D HPLC-MS/MS as described earlier.
Peptides were identified and quantified using MaxQuant version 1.2.2.5 (Cox and Mann, supra) with the following changes to default settings: mono- and di-methylation of lysine, and oxidation of methionine, and N-terminal acetylation as variable modifications, disabled “I=L”, up to three modifications per peptide, one missed cleavage, maximum charge of 5. Protein and peptide FDR were set to 1%, and proteins were filtered post-hoc for at least two unique peptides. Proteins were excluded from an experiment if they were not quantified in both labeling directions. Because FDR is unreliable for small numbers of peptides the modification site FDR was set to 10% and all methylated peptides were manually verified. […] Quantitative protein data was normalized to the mean value among proteins identified by analyzing 50 ng of digested loading control.
For UNC0638 experiments the treated vs. untreated ratio was determined by subtracting the value from 3×MBTD355N prior to dividing values from the light and heavy channels. Only proteins showing a two-fold signal to background ratio (3×MBT/3×MBTD355N) were evaluated as potential G9a/GLP substrates.

| Substance | Protein Ratio 3xMBT/D355N (3×MBT domain of L3MBTL1 [1]) | 3xMBT/D355N UNC Heavy (3×MBT domain of L3MBTL1 [2]) | 3xMBT/D355N UNC Light (3×MBT domain of L3MBTL1 [2]) | Protein Ratios 3xMBT/D355N (3×MBT domain of L3MBTL1 [2]) |
| --- | --- | --- | --- | --- |
| SSRP1: protein with methylated lysine identified in 3xMBT pull-down | 14.6 | 4.47 log base 2 | 4.11 log base 2 |  |
| MCM7: protein with methylated lysine identified in 3xMBT pull-down | 6.7 | 2.23 log base 2 | 2.52 log base 2 |  |
| RBM25: protein with methylated lysine identified in 3xMBT pull-down | 7.7 | 2.41 log base 2 | 2.28 log base 2 |  |
| MSH6: protein with methylated lysine identified in 3xMBT pull-down | 1.2 | 2.51 log base 2 | 2.41 log base 2 |  |
| Protein Wiz | 5.3 | 0.93 log base 2 | 2.02 log base 2 | 2.7 |
| DNA ligase 1 | 10.7 | 3.18 log base 2 | 1.96 log base 2 | 5.9 |
